According to patent US20240299562A1 (priority 2020, published 2024):
Values joined by “and” are separate entries in the source; they are usually repeats but may differ in a detail not shown here. Identical values can stand only once. Like-named read-outs stand apart in the source and are kept apart here. *1 amine or outer side, *2 acyl side, *3 side chain or, on linkers, in order; H or OH if unused. Where a SMILES comes first, the peptide text is derived from it. [ ]: non-standard residue; d: D form. The star is where a group is joined. X1 = CO[C@@H](C1CCCN1[*:1])[C@@H](C)C(=O)[*:2]; Dil = CC[C@H](C)[C@H](NC)[C@@H](CC(=O)O)OC; PABC = O=C(OCc1ccc(N[*:1])cc1)[*:2]; Phosphonoacetyl = O=C(CP(=O)(O)O)*; X2 = C[C@@H](N*)[C@@H](O)c1ccccc1; NMeV = CN[C@H](C(=O)O)C(C)C

Legend:
NCI-1299 cells = assay: WST-1 cell viability, NCI-H1299 lung cancer cells; assay type: cell-based; settings: for IC50: WST-1 (Table 1), read-out: Absolute IC50; for SI = HME-1 IC50/cancer IC50: NCI-1299 (NSCLC) vs HME-1 (Table 3)
Procedure: (§1) All commercial cell lines were purchased at ATCC (LGC Standards SARL, France). Cells were seeded in 96-well plates according to their optimal seeding density, varying between 5.000 and 10.000 cells/well. After attachment overnight, 10-point serial titrations (1:5) were prepared in their equivalent complete media as recommended by ATCC, starting from the 10 mM stock solutions. For doxorubicin comprising prodrugs dilutions started from 100 μM, while for the parent compound doxorubicin dilutions started at 10 μM. […] Seventy-two hours later, compounds were removed together with the supernatants and cells were washed once with PBS to remove excess drugs.
(§2) The WST-1 assay for cell proliferation and viability (Roche, Switzerland) was performed according to manufacturer's protocol. Absorbances were measured at 4 hrs using a Perkin Elmer Ensight multiplate reader, equipped with Kaleido 2.0 software (Perkin Elmer, USA). Cell viability was expressed as a percentage compared to non-treated cells. Absolute IC50 values were extrapolated from a non-linear fitting following the Sigmoidal-4PL regression method using Graphpad Prism 7.0. Likewise, maximal efficacy was determined as 100% minus the cell viability determined when cells are incubated in the presence of a compound. For instance, if 20% of the cells survive incubation in the presence of a compound, then the maximal efficacy of that compound is 100%-20%=80%.
(§3) Selectivity indices (SI) were defined as the ratio of the concentration of drug required to kill 50% of the cells in normal (control, non-cancer) cells, divided by the concentration required to exert the same efficacy in tumor cells: SI=IC50 (control cell)/IC50 (cancer cell), or SI=^HME-1IC50/cancer IC50.

A2780 cells = assay: WST-1 cell viability, A2780 ovarian cancer cells; assay type: cell-based; settings: for SI = HME-1 IC50/cancer IC50: A2780 (OvC) vs HME-1 (Table 3); for IC50: WST-1 (Table 1), read-out: Absolute IC50
Procedure: as §1, §2, §3

DU145 cells = assay: WST-1 cell viability, DU145 prostate cancer cells; assay type: cell-based; settings: for SI = HME-1 IC50/cancer IC50: DU145 (PrC) vs HME-1 (Table 3); for IC50: WST-1 (Table 1), read-out: Absolute IC50
Procedure: as §1, §2, §3

[1] = tested on: LS-174T colorectal tumor cells xenografted in Nude NMRI mice; assay: In vivo activity on LS-174T colorectal cancer xenograft; design: species or system mouse; settings: twice per week
Procedure: The in vivo efficacy of PhAc-ALLP-Dox was tested in a mouse model of colorectal cancer. LS-174T colorectal tumor cells were xenografted in Nude NMRI mice. In total, 30 adult (9-10 weeks old) nude female NMRI mice (Janvier, France) were subjected to subcutaneous (SC) tumor cell grafting in the right flank. In total, 2×10^6 LS-174T cells resuspended in PBS were injected in 200 uL final volume. As soon as the tumors were palpable and reached the volume of 200 mm3 the treatment was started. […]
Treatments were performed twice per week for a total of four tail vein administrations/injections (on days 1, 4, 7 and 10). […] During the experiment, tumor volume was measured two times a week and was assessed three-dimensionally with a digital caliper (Mitutoyo, Illinois) using the following formula: […]
Tumor growth inhibition (TGI) expressed as percentage vs control was calculated as follows: % TGI=(1−{Tt/T0/Ct/C0}/1−{C0/Ct})×100 where Tt and T0 are the individual tumor volume of treated mouse X at times t and 0 respectively, Ct and C0 are the mean tumor volume of the control group at times t and 0 respectively.

[2] = tested on: hiPSC-derived astrocytes (iAstro); assay: WST-1 cell viability, hiPSC-derived astrocytes (iAstro); assay type: cell-based, human; settings: iAstro normal astrocytes, 72 hrs; for IC50: WST-1 (Table 4), read-out: Absolute IC50; for Maximal efficacy: WST-1 (Table 5)
Procedure: as §1, §2, §3
hiPSC-derived astrocytes were purchased from Tempo Biosciences (iAstro™). Prior to use, six-well plates were coated with 1 ml GFR Matrigel (1:100˜0.1 mg/ml, Corning #356231) and allowed to polymerize at 37° C. overnight. Three days before assaying, cells were defrosted and seeded onto the GFR Matrigel in iAstro medium, and allowed to recover from defrosting for 48 hrs. The recovery was aided using RevitaCell™ Supplement during the first 24 hrs. After morphological inspection, cells were transferred to 96-well plates and 4-well microscopy vessels (Millipore), coated with Poly-L-lysine (50 μg/ml, P2533, Sigma Aldrich) and mouse laminin (4 ng/ml, L2020, Sigma Aldrich), using StemPro Accutase reagent (Invitrogen). Following overnight recovery, iAstro's were exposed to the same treatment protocol described above.

[3] = tested on: A2058 melanoma cells subcutaneously implanted in nude NMRI mice; assay: In vivo activity on A2058 melanoma xenograft; design: species or system mouse
Procedure: The in vivo efficacy of PhAc-ALLP-PABC-MMAE was tested in a mouse melanoma model. A2058 melanoma cells were subcutaneously (SC) implanted in nude NMRI mice. In total, 36 adult (9-10 weeks old) nude female NMRI mice (Janvier, France) were subjected to SC tumor cell grafting in the right flank. In total, 3×10^6 A2058 cells resuspended in PBS plus Matrigel (1:1) were injected in 200 uL final volume. As soon as the tumors were palpable and reached the volume of 200 mm3 the treatment was started. At day zero, mice were randomly divided into 4 groups, based on the tumor volume, in order to have the following experimental sub-cohorts: • control group receiving the vehicle (PBS pH7.2) with a dose of 5 ml/kg, intravenously (iv), once per week (QW); • PhAc-ALLP-PABC-MMAE (2 mg/kg iv, QW); • PhAc-ALLP-PABC-MMAE (4 mg/kg iv, QW); • MMAE (0.9 mg/kg iv, QW).
Treatments were performed once per week for a total of four tail vein administrations/injections (on days 1, 7, 14 and 21). Two extra weeks of observation followed the active treatment phase. During the experiment, tumor volume was measured two times a week and was assessed three-dimensionally with a digital caliper (Mitutoyo, Illinois) using the following formula:
V=4/3π×[(d/2)^2×(D/2)], where d is the minor tumor axis and D is the major tumor axis.

## COc1cccc2c1C(=O)c1c(O)c3c(c(O)c1C2=O)C[C@@](O)(C(=O)CO)C[C@@H]3O[C@H]1C[C@H](N)[C@H](O)[C@H](C)O1 [Doxorubicin, reference compound]
NCI-1299 cells; Homo sapiens, NCI-H1299, NCI-1299 (NSCLC), 72 hrs
  IC50: 30 nM
NCI-1299 cells; Homo sapiens, NCI-H1299, NCI-1299 (NSCLC), 72 hrs, WST-1 (Table 2), read-out: Maximal efficacy, cytotoxicity (%) at 100 μM
  cytotoxicity at 100 µM: 92.9%
NCI-1299 cells
  SI = HME-1 IC50/cancer IC50: 1.33
A2780 cells
  SI = HME-1 IC50/cancer IC50: 9.15
A2780 cells; Homo sapiens, A2780 (OvC), 72 hrs
  IC50: < 10 nM
A2780 cells; Homo sapiens, A2780 (OvC), 72 hrs, WST-1 (Table 2), read-out: Maximal efficacy, cytotoxicity (%) at 100 μM
  cytotoxicity at 100 µM: 96%
DU145 cells
  SI = HME-1 IC50/cancer IC50: 1.55
DU145 cells; Homo sapiens, DU-145, DU145 (PrC), 72 hrs
  IC50: 30 nM
DU145 cells; Homo sapiens, DU-145, DU145 (PrC), 72 hrs, WST-1 (Table 2), read-out: Maximal efficacy, cytotoxicity (%) at 100 μM
  cytotoxicity at 100 µM: 92.5%

## COc1cccc2c1C(=O)c1c(O)c3c(c(O)c1C2=O)C[C@@](O)(C(=O)CO)C[C@@H]3O[C@H]1C[C@H](NC(=O)[C@@H]2CCCN2C(=O)[C@H](CC(C)C)NC(=O)[C@H](CC(C)C)NC(=O)[C@H](C)NC(=O)CP(=O)(O)O)[C@H](O)[C@H](C)O1 [PhAc-ALLP-Dox, PhAc-ALLP-Doxorubicin] (HELM PEPTIDE1{[O=C(CP(=O)(O)O)[*:2]].A.L.L.P.[COc1cccc2c1C(=O)c1c(O)c3c(c(O)c1C2=O)C[C@@](O)(C(=O)CO)C[C@@H]3O[C@H]1C[C@H](N[*:1])[C@H](O)[C@H](C)O1]}$$$$V2.0)
NCI-1299 cells
  SI = HME-1 IC50/cancer IC50: 27.39
NCI-1299 cells; NCI-1299 (NSCLC), 72 hrs
  IC50: 1350 nM
NCI-1299 cells; NCI-1299 (NSCLC), 72 hrs, WST-1 (Table 2)
  Maximal efficacy, cytotoxicity (%) at 100 μM: 70.15%
A2780 cells
  SI = HME-1 IC50/cancer IC50: 701.33
A2780 cells; A2780 (OvC), 72 hrs
  IC50: 50 nM
A2780 cells; A2780 (OvC), 72 hrs, WST-1 (Table 2)
  Maximal efficacy, cytotoxicity (%) at 100 μM: 90.59%
[1]; 10 mg/kg and 30 mg/kg iv
  Tolerability: mice did tolerate both doses
[1]; 30 mg/kg iv, four tail vein administrations
  Tumor volume compared to the untreated control group: significantly reduced the tumor volume
DU145 cells
  SI = HME-1 IC50/cancer IC50: 5.25
DU145 cells; DU145 (PrC), 72 hrs
  IC50: 7020 nM
DU145 cells; DU145 (PrC), 72 hrs, WST-1 (Table 2)
  Maximal efficacy, cytotoxicity (%) at 100 μM: 79.25%
[2]
  IC50: 20300 nM
  Maximal efficacy: 68.5%

## CC[C@H](C)[C@@H]([C@@H](CC(=O)N1CCCC1[C@H](OC)[C@@H](C)C(=O)N[C@H](C)[C@@H](O)c1ccccc1)OC)N(C)C(=O)[C@@H](NC(=O)[C@H](C(C)C)N(C)C(=O)OCc1ccc(NC(=O)[C@@H]2CCCN2C(=O)[C@H](CC(C)C)NC(=O)[C@H](CC(C)C)NC(=O)[C@H](C)NC(=O)CP(=O)(O)O)cc1)C(C)C (some centres unmarked) [PhAc-ALLP-PABC-MMAE] (Phosphonoacetyl-ALLP[PABC][NMeV]V[Dil][X1]-X2)
[3]; 2 mg/kg iv, once per week, four administrations
  Tumor volume compared to the untreated control group: importantly reduced the tumor volume
[3]; 2 mg/kg iv, once per week, observed until day 34
  Response: Complete response
[3]; 2 mg/kg iv, once per week, until day 34
  Relapse and macroscopical toxicity: without any hint of relapse or macroscopical sign of toxicity
[3]; higher concentration (4 mg/kg iv, once per week)
  Tumor growth: important reduction of tumor growth
[3]; higher concentration (4 mg/kg iv, once per week), sacrificed at day 21
  Reduction of body weight: > 20%
[2]
  IC50: > 500 nM
  Maximal efficacy: 2% and 1.7%
